Laboratory results published in patent publication US20260217767A1, “NOVEL A4B7 THIOETHER PEPTIDE DIMER ANTAGONISTS” (Protagonist Therapeutics, Inc., priority 2014, published 2026).
*1 amine or outer side, *2 acyl side, *3 side chain or, on linkers, in order; H or OH if unused. Where a SMILES comes first, the peptide text is derived from it. Bridges are numbered along the chain shown (N, C = ends). Roman numbers before positions name the chains, in order. [ ]: non-standard residue; d: D form. Phe(4-tBu) = CC(C)(C)c1ccc(C[C@H](N)C(=O)O)cc1; Bip = N[C@@H](Cc1ccc(-c2ccccc2)cc1)C(=O)O; Diglycolyl = O=C(COCC(=O)[*:2])[*:1]; NMeR = CN[C@@H](CCCNC(=N)N)C(=O)O; Tic = O=C(O)[C@@H]1Cc2ccccc2CN1; β3hE = N[C@@H](CCC(=O)O)CC(=O)O; X1 = O=C(c1ccccc1C[*:2])[*:1]; Pen = CC(C)(S)[C@H](N)C(=O)O

Columns and labels:
[1] = system: CD4+/CD45RO+ memory T cells; test: PBMC Memory T Cell Adhesion Assay; assay type: cell-based, human; conditions: thioether monomer peptides, Table 6
Procedure: PBMC Memory T Cell Adhesion Assay
Fresh CD4+/CD45RO+ memory T cells were isolated from human peripheral blood mononuclear cell (PBMC) donors by Aragen Bioscience Inc. (Morgan Hill, CA). The assay plate was prepared using IgG Fc capture antibody (donkey anti human) immobilized at 500 ng/well in 50 mM sodium bicarbonate buffer, pH 9.5, ON, 4 C onto a Greiner Fluotrac plate (100 ul per well). The plate was rinsed two time with Blocking Buffer (25 mM Tris HCl, pH7.5, 150 mM NaCl, 1.5% BSA, 0.05% Tween), and blocked with Blocking Buffer for 2 hours at 37 C or 5 hours at RT using 200 ul per well. The Blocking Buffer was removed and either MAdCAM-1 or VCAM-1 at 400 ng/well in Blocking Buffer was added and the plate incubated overnight at 4 C (100 ul per well). The plate was washed two times with Blocking Buffer, and rinsed once with 200 ul Binding Media (DMEM phenol red free, 10 mM HEPES, 1×Na pyruvate, 1× Glutamine, and supplemented with 1 mM MnC12 prior to use). To prepare cells, approximately 25 million CD4+/CD45RO+ memory T cells were counted by trypan blue exclusion using a haemocytometer to determine viability and cell count. The cells were transferred to a 50 ml conical tube, and centrifuged at 1200 rpm for 10 minute. The media was aspirated and the cell pellet resuspended in 15 ml Binding Media. The cells were centrifuged again and resuspended in the appropriate amount of Binding Media to be used for assays (50 ul of cells per well at 2× the final density). To each well, and equal volume (50 ul) of test compound was added and the plate was incubated for 1.5 hours at 37 C, 5% CO2. Each well was rinsed 3× with 150 ul per well of Binding Media. […] The plate was incubated at 37 C, 5% CO2, for 45 minutes. The plate was protected from light by using black adhesive seals. Fluorescence intensity was measured using a Molecular Devices Gemini EM Fluorescent Plate Reader (Ex 485/Em530, Bottom Read, Reading Sensitivity=20). IC50 curves are generated using Graph Pad Prism and the curves analyzed using analyzed using a non-linear regression (four parameters) algorithm. The log (concentration) versus RFU (Ex485/Em530) was plotted to determine IC50 values.

[2] = Simulated Gastric Fluid (SGF) Stability Assay; assay type: in vitro ADME; conditions: pig, pH 2, 37° C., dimers, Table 7; for half-life at 20 μM: simulated gastric fluid (SGF) with porcine pepsin; for half-life: simulated gastric fluid (with porcine pepsin)
How it was run: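 Peptides at 20 μM final were incubated at 37° C with shaking in simulated gastric fluid (NaCl, porcine pepsin, HCl; pH 2). Samples were taken at 0, 15, 30 and 60 min, quenched in acetonitrile/0.1% formic acid and quantified by LC-MS/MS against an internal standard relative to time 0. Half-life came from first-order exponential decay fit.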

Compound	IC50 [1] [nM]	half-life [2] [h]	also measured
CC(C)C[C@@H]1NC(=O)[C@H]([C@@H](C)O)NC(=O)[C@H](CC(=O)O)NC(=O)[C@H](CO)NC(=O)[C@H](CCCNC(=N)N)N(C)C(=O)c2ccccc2CSC(C)(C)[C@@H](C(=O)N[C@@H](Cc2ccc(C(C)(C)C)cc2)C(=O)N[C@@H](CCC(=O)O)CC(N)=O)NC1=O [compound 134] ([NMeR]SDTL[Pen][Phe(4-tBu)][β3hE]-NH2; linker N-6 via X1)	25 to 100		
CC(C)C[C@@H]1NC(=O)[C@H]([C@@H](C)O)NC(=O)[C@H](CC(=O)O)NC(=O)[C@H](CO)NC(=O)[C@H](CCCNC(=N)N)N(C)C(=O)c2ccccc2CSC(C)(C)[C@@H](C(=O)N[C@@H](Cc2ccc(-c3ccccc3)cc2)C(=O)N[C@H](CCC(=O)O)C(=O)N[C@H](CCCCN)C(N)=O)NC1=O [compound 178] (HELM PEPTIDE1{[meR].S.D.T.L.[Pen].[O=C([C@H](Cc1ccc(-c2ccccc2)cc1)N[*:1])[*:2]].[dE].[dK].[am]}|CHEM1{[O=C(c1ccccc1C[*:2])[*:1]]}$PEPTIDE1,CHEM1,1:R1-1:R1|PEPTIDE1,CHEM1,6:R3-1:R2$$$V2.0)			half-life at 20 μM [2]: > 3 h
CC(C)C[C@@H]1NC(=O)[C@H]([C@@H](C)O)NC(=O)[C@H](CC(=O)O)NC(=O)[C@H](CO)NC(=O)[C@H](CCCNC(=N)N)N(C)C(=O)c2ccccc2CSC(C)(C)[C@@H](C(=O)N[C@@H](Cc2ccc(-c3ccccc3)cc2)C(=O)N[C@H](CCC(=O)O)C(=O)N[C@H](CCCCNC(=O)COCC(=O)NCCCC[C@@H](NC(=O)[C@@H](CCC(=O)O)NC(=O)[C@H](Cc2ccc(-c3ccccc3)cc2)NC(=O)[C@H]2NC(=O)[C@H](CC(C)C)NC(=O)[C@H]([C@@H](C)O)NC(=O)[C@H](CC(=O)O)NC(=O)[C@H](CO)NC(=O)[C@H](CCCNC(=N)N)N(C)C(=O)c3ccccc3CSC2(C)C)C(=O)O)C(=O)O)NC1=O [compound 208] (I: [NMeR]SDTL[Pen][Bip][dE][dK]-OH / II: [NMeR]SDTL[Pen][Bip][dE][dK]-OH; linker I:9-II:9 via Diglycolyl; linker I:N-I:6, II:N-II:6 via X1)		> 3	
CC(C)C[C@@H]1NC(=O)[C@H]([C@@H](C)O)NC(=O)[C@H](CC(=O)O)NC(=O)[C@H](CO)NC(=O)[C@H](CCCNC(=N)N)N(C)C(=O)c2ccccc2CSC(C)(C)[C@@H](C(=O)N[C@@H](Cc2ccc(-c3ccccc3)cc2)C(=O)N[C@@H](CCC(=O)O)CC(N)=O)NC1=O [compound 133] ([NMeR]SDTL[Pen][Bip][β3hE]-NH2; linker N-6 via X1)	100 to 1000		
CC(C)C[C@@H]1NC(=O)[C@H]([C@@H](C)O)NC(=O)[C@H](CC(=O)O)NC(=O)[C@H](CO)NC(=O)[C@H](CCCNC(=N)N)N(C)C(=O)c2ccccc2CSC(C)(C)[C@@H](C(=O)N[C@@H](Cc2c[nH]c3ccccc23)C(=O)N[C@H](CCC(=O)O)C(=O)N[C@@H](Cc2ccccc2)C(N)=O)NC1=O [compound 101] (HELM PEPTIDE1{[meR].S.D.T.L.[Pen].W.[dE].F.[am]}|CHEM1{[O=C(c1ccccc1C[*:2])[*:1]]}$PEPTIDE1,CHEM1,1:R1-1:R1|PEPTIDE1,CHEM1,6:R3-1:R2$$$V2.0)	100 to 1000		
CC(C)C[C@@H]1NC(=O)[C@H]([C@@H](C)O)NC(=O)[C@H](CC(=O)O)NC(=O)[C@H](CO)NC(=O)[C@H](CCCNC(=N)N)N(C)C(=O)c2ccccc2CSC[C@@H](C(=O)N2Cc3ccccc3C[C@H]2C(=O)N[C@H](CCC(=O)O)C(=O)N[C@H](CCCCNC(=O)COCC(=O)NCCCC[C@@H](NC(=O)[C@@H](CCC(=O)O)NC(=O)[C@@H]2Cc3ccccc3CN2C(=O)[C@@H]2CSCc3ccccc3C(=O)N(C)[C@@H](CCCNC(=N)N)C(=O)N[C@@H](CO)C(=O)N[C@@H](CC(=O)O)C(=O)N[C@@H]([C@@H](C)O)C(=O)N[C@@H](CC(C)C)C(=O)N2)C(N)=O)C(N)=O)NC1=O [compound 184] (I: [NMeR]SDTLC[Tic][dE][dK]-NH2 / II: [NMeR]SDTLC[Tic][dE][dK]-NH2; linker I:9-II:9 via Diglycolyl; linker I:N-I:6, II:N-II:6 via X1)			half-life at 20 μM [2]: > 3 h
CC(C)C[C@@H]1NC(=O)[C@H]([C@@H](C)O)NC(=O)[C@H](CC(=O)O)NC(=O)[C@H](CO)NC(=O)[C@H](CCCNC(=N)N)N(C)C(=O)c2ccccc2CSC[C@@H](C(=O)N2Cc3ccccc3C[C@H]2C(=O)N[C@H](CCC(=O)O)C(=O)N[C@H](CCCCNC(=O)COCC(=O)NCCCC[C@@H](NC(=O)[C@@H](CCC(=O)O)NC(=O)[C@@H]2Cc3ccccc3CN2C(=O)[C@@H]2CSCc3ccccc3C(=O)N(C)[C@@H](CCCNC(=N)N)C(=O)N[C@@H](CO)C(=O)N[C@@H](CC(=O)O)C(=O)N[C@@H]([C@@H](C)O)C(=O)N[C@@H](CC(C)C)C(=O)N2)C(=O)O)C(=O)O)NC1=O [compound 207] (I: [NMeR]SDTLC[Tic][dE][dK]-OH / II: [NMeR]SDTLC[Tic][dE][dK]-OH; linker I:9-II:9 via Diglycolyl; linker I:N-I:6, II:N-II:6 via X1)		> 3	
CC(C)C[C@@H]1NC(=O)[C@H]([C@@H](C)O)NC(=O)[C@H](CC(=O)O)NC(=O)[C@H](CO)NC(=O)[C@H](CCCNC(=N)N)N(C)C(=O)c2ccccc2CSC(C)(C)[C@@H](C(=O)N[C@@H](Cc2ccccc2)C(=O)N[C@H](CCC(=O)O)C(=O)N[C@H](CCCCNC(=O)COCC(=O)NCCCC[C@@H](NC(=O)[C@@H](CCC(=O)O)NC(=O)[C@H](Cc2ccccc2)NC(=O)[C@H]2NC(=O)[C@H](CC(C)C)NC(=O)[C@H]([C@@H](C)O)NC(=O)[C@H](CC(=O)O)NC(=O)[C@H](CO)NC(=O)[C@H](CCCNC(=N)N)N(C)C(=O)c3ccccc3CSC2(C)C)C(=O)O)C(=O)O)NC1=O [compound 204] (I: [NMeR]SDTL[Pen]F[dE][dK]-OH / II: [NMeR]SDTL[Pen]F[dE][dK]-OH; linker I:9-II:9 via Diglycolyl; linker I:N-I:6, II:N-II:6 via X1)		> 3	
